We go through 7 molecules from ChEMBL document CHEMBL1275538, “In vitro activity of OPT-80 tested against clinical isolates of toxin-producing Clostridium difficile” (Antimicrob Agents Chemother, 2008).

As a reminder, the MIC50 is an inhibitory concentration at the 50% level, which refers to growth in some studies and to a panel of isolates in others. The term MIC90 denotes the lowest concentration that inhibits either 90% of growth or 90% of the strains tested, depending on the study. As a reminder, the MIC is the lowest concentration found to suppress growth. Usually Cmax stands for the peak of the concentration-time curve.

≈ marks a conversion by molar mass, not a printed value.

The test system of data set [1] is Clostridioides difficile. Nature of the data set: Antibacterial activity against toxin-positive Clostridium difficile clinical isolate by agar dilution method in presence of clavulanic acid. The class given is functional.
The test system of data set [2] is Clostridioides difficile. Kind of data set: Antibacterial activity against toxin-positive Clostridium difficile clinical isolate assessed as percent of susceptible isolates by agar dilution method. The class given is functional. (In agar dilution the substance is mixed into plates at graded concentrations.)
For data set [3], the system named is Clostridioides difficile. Nature of the data set: Antibacterial activity against toxin-positive Clostridium difficile clinical isolate by agar dilution method. The class given is functional.
For data set [4], the system named is Clostridioides difficile. Kind of data set: Antibacterial activity against Clostridium difficile by broth microdilution method using Wilkins-Chalgren broth. The class given is functional.
Data set [5] concerns Clostridioides difficile. Nature of the data set: Antibacterial activity against Clostridium difficile by M11-A5 CLSI agar dilution. It counts as functional.
Data set [6] concerns Clostridioides difficile. Nature of the data set: Antibacterial activity against Clostridium difficile by agar dilution method using Wilkins-Chalgren agar. The class given is functional.
Data set [7] is described as follows: Cmax in syrian golden hamster serum at 200 mg administered BID after 1.5 hrs. It counts as ADME, organism-based, Mesocricetus auratus. Further details: dose 200 mg.
Data set [8] deals with Clostridioides difficile. Kind of data set: Antibacterial activity against Clostridium difficile by M11-A7 CLSI agar dilution. It counts as functional.
The subject of data set [9] is Clostridioides difficile. Kind of data set: Antibacterial activity against Clostridium difficile by M11-A6 CLSI agar dilution. It counts as functional.
The nature of data set [10]: Apparent elimination half-life in syrian golden hamster at 400 mg/kg. It counts as ADME, organism-based, Mesocricetus auratus. Conditions: in vivo, read-out: beta t1/2 (converted). The arrangement: dose 400 mg/kg.
Data set [11] relates to Clostridioides difficile. Kind of data set: Antibacterial activity against toxin-positive Clostridium difficile clinical isolate by agar dilution method in presence of Tazobactam. It counts as functional.

`CC1(C)S[C@@H]2[C@H](NC(=O)[C@H](N)c3ccc(O)cc3)C(=O)N2[C@H]1C(=O)O` [AMOXICILLIN]: in the data set with Clostridioides difficile [1], the MIC50 was determined as 1 µg/mL and the MIC90 was 1 µg/mL.

With `CO/N=C(\C(=O)N[C@@H]1C(=O)N2C(C(=O)O)=C(CSc3nc(=O)c(O)nn3C)CS[C@H]12)c1csc(N)n1` [CEFTRIAXONE], the Activity with Clostridioides difficile [2] came out at 1%. In the data set on Clostridioides difficile [3], this molecule displayed an MIC50 of 32 µg/mL (≈ 57.7 µM) and an MIC90 of 128 µg/mL (≈ 231 µM).

As for `CCC[C@@H]1C[C@@H](C(=O)N[C@@H]([C@H]2O[C@H](SC)[C@H](O)[C@@H](O)[C@H]2O)[C@H](C)Cl)N(C)C1` [CLINDAMYCIN], the Activity in the data set with Clostridioides difficile [2] came to 17.3%. Further, in the data set on Clostridioides difficile [3], the MIC50 worked out at 8 µg/mL (≈ 18.8 µM) and the MIC90 is more than 16 µg/mL.

For the molecule `CCc1c(Cl)c(O)c(Cl)c(O)c1C(=O)O[C@H]1[C@H](O)[C@H](OC)[C@H](OC/C2=C\C=C\C[C@H](O)/C(C)=C/[C@H](CC)[C@@H](O[C@@H]3OC(C)(C)[C@@H](OC(=O)C(C)C)[C@H](O)[C@@H]3O)/C(C)=C/C(C)=C/C[C@@H]([C@@H](C)O)OC2=O)O[C@@H]1C` [FIDAXOMICIN], the MIC50 was 0.0019 µg/mL (≈ 0.0018 µM) in the data set with Clostridioides difficile [4]; not above 0.016 µg/mL against Clostridioides difficile [5]; 0.25 µg/mL (≈ 0.236 µM) against Clostridioides difficile [6]; 0.25 µg/mL (≈ 0.236 µM) against Clostridioides difficile [8]; 0.125 µg/mL (≈ 0.118 µM) in the data set with Clostridioides difficile [9]; 0.25 µg/mL (≈ 0.236 µM) with Clostridioides difficile [3]. In addition, the MIC90 with Clostridioides difficile [4] was determined as 0.0078 µg/mL (≈ 0.00737 µM); against Clostridioides difficile [5], 0.125 µg/mL (≈ 0.118 µM); against Clostridioides difficile [6], 0.25 µg/mL (≈ 0.236 µM); against Clostridioides difficile [8], 0.5 µg/mL (≈ 0.473 µM); in the data set with Clostridioides difficile [9], 0.125 µg/mL (≈ 0.118 µM); with Clostridioides difficile [3], 0.5 µg/mL (≈ 0.473 µM). The molecule further showed an MIC against Clostridioides difficile [5] not above 0.06 µg/mL. Further, the highest level in data set [7] (Cmax) was 26.5 ng/mL. Further, the half-life in data set [10] was 56.4 min.

In the data set with Clostridioides difficile [3], `C[C@@H](O)[C@H]1C(=O)N2C(C(=O)O)=C(S[C@@H]3CN[C@H](C(=O)N(C)C)C3)[C@H](C)[C@H]12` [MEROPENEM] gave an MIC50 of 2 µg/mL (≈ 5.22 µM) and an MIC90 of 2 µg/mL (≈ 5.22 µM).

Take `CCN1CCN(C(=O)N[C@@H](C(=O)N[C@@H]2C(=O)N3[C@@H]2SC(C)(C)[C@@H]3C(=O)O)c2ccccc2)C(=O)C1=O` [PIPERACILLIN]: in the data set with Clostridioides difficile [11], the MIC50 was determined as 8 µg/mL and the MIC90 stood at 8 µg/mL.

For the molecule `CO[C@H]1/C=C/O[C@@]2(C)Oc3c(C)c(O)c4c(O)c(c(/C=N/N5CCN(C)CC5)c(O)c4c3C2=O)NC(=O)/C(C)=C\C=C\[C@H](C)[C@H](O)[C@@H](C)[C@@H](O)[C@@H](C)[C@H](OC(C)=O)[C@@H]1C` [RIFAMPIN], in the data set with Clostridioides difficile [3], the MIC50 worked out at 0.015 µg/mL (≈ 0.0182 µM) and the MIC90 worked out at 0.015 µg/mL (≈ 0.0182 µM).
